From the NIST ThermoML archive (doi:10.1021/je050316s) come the findings set out here.

Several values for one entry are separate records, joined by “and”; a condition that tells them apart may be missing. Equal values may be shown once. Numbers after ± are expanded uncertainties.

For data set [1] the following is noted: Liquid; for mass density: 101.33 kPa.
The nature of data set [2]: refractive index (Na D-line) (dimensionless). Conditions: 101.33 kPa, Liquid, Standard Abbe refractometry.

By mass density is commonly meant the mass of a sample divided by its volume. In general, refractive index refers to the speed of light in vacuum divided by its phase velocity in the sample. Regarding `CCCCCCCC` [octane], the mass density in data set [1] (298.15 K) is listed as 698.49 ± 0.39 kg/m3; in data set [1] (303.15 K), 694.67 ± 0.39 kg/m3. Moreover, the refractive index in data set [2] (298.15 K) came to 1.3946 ± 0.0004.
In general, vapor or sublimation pressure refers to the equilibrium pressure above the liquid or solid. On to `NC1CCCCC1` [cyclohexylamine], for which the mass density in data set [1] (303.15 K) turned out to be 858.2 ± 0.18 kg/m3. The results for the “vapor or sublimation pressure” value in data set [1] (333.15 K) and in data set [1] (363.15 K) were 7.51 ± 0.5 kPa and 25.59 ± 0.58 kPa, respectively. Moreover, the refractive index in data set [2] (288.15 K) was 1.4624 ± 0.0005.
Turning to `CCCCCCCCCCC` [undecane], the mass density in data set [1] (293.15 K) was 740.11 ± 0.28 kg/m3 and 740.11 ± 0.36 kg/m3; in data set [1] (303.15 K), 732.93 ± 0.36 kg/m3. Besides, in data set [2] (293.15 K), the refractive index was 1.4162 ± 0.0004.
Consider `CCCCCCC` [heptane], for which the mass density in data set [1] (298.15 K) is listed as 679.43 ± 0.44 kg/m3; in data set [1] (303.15 K) it was 675.32 ± 0.44 kg/m3. For the same molecule, in data set [2] (298.15 K), the refractive index is on record as 1.3853 ± 0.0004.
On the same counts, the results for `CCCCCCCCCC` [decane] are 726.55 ± 0.38 kg/m3, 722.54 ± 0.38 kg/m3 and 1.4092 ± 0.0004.
As to `CCc1ccccc1` [ethylbenzene], in data set [1] (298.15 K), the mass density is listed as 862.59 ± 0.19 kg/m3. The refractive index in data set [2] (293.15 K) is reported as 1.496 ± 0.0004.
As to `Nc1ccccc1` [aniline], the mass density in data set [1] (293.15 K) was found to be 1021.72 ± 0.27 kg/m3; in data set [1] (303.15 K), 1012.94 ± 0.27 kg/m3. Besides, the refractive index in data set [2] (293.15 K) turned out to be 1.5862 ± 0.0004.
As to `CCCCCCCCC` [nonane], the results for the mass density in data set [1] (293.15 K) and in data set [1] (303.15 K) were 719.13 ± 0.38 kg/m3 and 710.05 ± 0.38 kg/m3, respectively. Also, the refractive index in data set [2] (293.15 K) was determined as 1.4055 ± 0.0004.
Consider `Cc1ccccc1` [toluene], for which the mass density in data set [1] (293.15 K) is reported as 866.78 ± 0.19 kg/m3. Moreover, the figures for the “vapor or sublimation pressure” value in data set [1] (333.15 K) and in data set [1] (363.15 K) were 18.56 ± 0.56 kPa and 54.49 ± 0.72 kPa, respectively. Moreover, the refractive index in data set [2] (293.15 K) worked out at 1.496 ± 0.0004.
